# Reference: patent publication EP0908457B1, “3-(1,2-benzisothiazol- and isoxazol-5-Y1)-2,4(1H,3H)-pyrimidinedione or thione and 3-(1,2-benzisothiazol- and isoxazol-5-y1)-4(3H)-pyrimidinone or thione herbicidal agents” (BASF AKTIENGESELLSCHAFT, priority 1997, dated 1999)
# Tests used:
# [1] = tested on: Cyperus serotinus, Rottb.; experiment: Preemergence weed control under flooded paddy conditions, CYPSE (Flatsedge); type: in vivo; for herbicidal effect rating, CYPSE: meaning of each grade not given here
# [2] = tested on: Echinochloa oryzoides (Ard.) Fritsch.; experiment: Preemergence weed control under flooded paddy conditions, ECHORC (Watergrass (Calif.)); type: in vivo; details: flooded paddy; for herbicidal effect rating, ECHORC: meaning of each grade not given here
# [3] = tested on: Oryza sativa, (L.) Tebonnet; experiment: Rice tolerance to post-transplant applications under flooded paddy conditions (Example 187), ORYSAT (Rice, Tebonnet); for herbicidal effect rating ORYSAT: meaning of each grade not given here
# Cyperus iria = experiment: Preemergence weed control under flooded paddy conditions, CYPIR (Rice Flatsedge); type: in vivo; details: flooded paddy; for herbicidal effect rating, CYPIR: meaning of each grade not given here
# Sagittaria pygmaea, L. = experiment: Preemergence weed control under flooded paddy conditions, SAGPY (Arrowhead (Pygmaea)); type: in vivo; details: flooded paddy; for herbicidal effect rating, SAGPY: meaning of each grade not given here
# [4] = tested on: Monochoria vaginalis, Presl.; experiment: Preemergence weed control under flooded paddy conditions, MOOVA (Monochoria); type: in vivo; details: flooded paddy; for herbicidal effect rating, MOOVA: meaning of each grade not given here
# [5] = Rate 0.0313 kg/ha, preemergence, rated three to four weeks after treatment
# [6] = Rate 0.0625 kg/ha, preemergence, rated three to four weeks after treatment
# [7] = Rate 0.1250 kg/ha, preemergence, rated three to four weeks after treatment
# [8] = Rate 0.2500 kg/ha, preemergence, rated three to four weeks after treatment
# [9] = Rate 0.1250 kg/ha, rated three to four weeks after treatment
# [10] = Rate 0.2500 kg/ha, rated three to four weeks after treatment
# [11] = Rate 0.0320 kg/ha, preemergence, rated three to four weeks after treatment
# [12] = Rate 0.0620 kg/ha, preemergence, rated three to four weeks after treatment
# [13] = Rate 0.5000 kg/ha, preemergence, rated three to four weeks after treatment
# [14] = Rate 0.0320 kg/ha, rated three to four weeks after treatment
# [15] = Rate 0.0620 kg/ha, rated three to four weeks after treatment
# [16] = Rate 0.0320 kg/ha, preemergence, rated 3-4 weeks after treatment
# [17] = Rate 0.0620 kg/ha, preemergence, rated 3-4 weeks after treatment
# [18] = Rate 0.1250 kg/ha, preemergence, rated 3-4 weeks after treatment
# [19] = Rate 0.2500 kg/ha, preemergence, rated 3-4 weeks after treatment
# [20] = 0.0313 kg/ha, preemergence weeds, rated three to four weeks after treatment
# [21] = 0.0625 kg/ha, preemergence weeds, rated three to four weeks after treatment
# [22] = 0.1250 kg/ha, preemergence weeds, rated three to four weeks after treatment
# [23] = 0.2500 kg/ha, preemergence weeds, rated three to four weeks after treatment
compound,measurement,setting,value
"Cn1c(C(F)(F)F)cc(=O)n(-c2ccc3snc(CO)c3c2)c1=O [Example 225, 3-[3-(Hydroxymethyl)-1,2-benzisothiazol-5-yl]-1-methyl-6-(trifluoromethyl)-2,4(1H,3H)-pyrimidinedione]",CYPSE herbicidal effect rating,[1]; [5],0.0
same,CYPSE herbicidal effect rating,[1]; [6],0.0
same,CYPSE herbicidal effect rating,[1]; [7],0.0
same,CYPSE herbicidal effect rating,[1]; [8],0.0
same,ECHORC herbicidal effect rating,[2]; [5],0.0
same,ECHORC herbicidal effect rating,[2]; [6],2.0
same,ECHORC herbicidal effect rating,[2]; [7],4.0
same,ECHORC herbicidal effect rating,[2]; [8],7.0
same,ORYSAT herbicidal effect rating,"[3]; Rate 0.0313 kg/ha, rated three to four weeks after treatment",3.0
same,ORYSAT herbicidal effect rating,"[3]; Rate 0.0625 kg/ha, rated three to four weeks after treatment",4.0
same,ORYSAT herbicidal effect rating,[3]; [9],6.0
same,ORYSAT herbicidal effect rating,[3]; [10],7.0
same,CYPIR herbicidal effect rating,Cyperus iria; [5],0.0
same,CYPIR herbicidal effect rating,Cyperus iria; [6],0.0
same,CYPIR herbicidal effect rating,Cyperus iria; [7],2.0
same,CYPIR herbicidal effect rating,Cyperus iria; [8],7.0
same,SAGPY herbicidal effect rating,"Sagittaria pygmaea, L.; [5]",0.0
same,SAGPY herbicidal effect rating,"Sagittaria pygmaea, L.; [6]",0.0
same,SAGPY herbicidal effect rating,"Sagittaria pygmaea, L.; [7]",0.0
same,SAGPY herbicidal effect rating,"Sagittaria pygmaea, L.; [8]",0.0
same,MOOVA herbicidal effect rating,[4]; [5],8.0
same,MOOVA herbicidal effect rating,[4]; [6],8.0
same,MOOVA herbicidal effect rating,[4]; [7],9.0
same,MOOVA herbicidal effect rating,[4]; [8],9.0
"C#CCOC(=O)COc1c(-c2nsc3ccc(-n4c(=O)cc(C(F)(F)F)n(C)c4=O)cc23)ccc(C)c1C [Example 280, Acetic acid, {{6-[5-[3,6-dihydro-3-methyl-2,6-dioxo-4-(trifluoromethyl)-1(2H)-pyrimidinyl]-1,2-benzisothiazol-3-yl}-2,3-xylyl}oxy}-, 2-propynyl ester]",CYPSE herbicidal effect rating,[1]; [11],0.0
same,CYPSE herbicidal effect rating,[1]; [12],0.0
same,CYPSE herbicidal effect rating,[1]; [7],0.0
same,CYPSE herbicidal effect rating,[1]; [8],2.0
same,CYPSE herbicidal effect rating,[1]; [13],3.0
same,ECHORC herbicidal effect rating,[2]; [11],0.0
same,ECHORC herbicidal effect rating,[2]; [12],5.7
same,ECHORC herbicidal effect rating,[2]; [7],7.6
same,ECHORC herbicidal effect rating,[2]; [8],9.0
same,ECHORC herbicidal effect rating,[2]; [13],9.0
same,ORYSAT herbicidal effect rating,[3]; [14],3.0
same,ORYSAT herbicidal effect rating,[3]; [15],3.0
same,ORYSAT herbicidal effect rating,[3]; [9],7.0
same,ORYSAT herbicidal effect rating,[3]; [10],8.0
same,ORYSAT herbicidal effect rating,"[3]; Rate 0.5000 kg/ha, rated three to four weeks after treatment",9.0
same,CYPIR herbicidal effect rating,Cyperus iria; [11],2.0
same,CYPIR herbicidal effect rating,Cyperus iria; [12],6.0
same,CYPIR herbicidal effect rating,Cyperus iria; [7],8.0
same,CYPIR herbicidal effect rating,Cyperus iria; [8],9.0
same,CYPIR herbicidal effect rating,Cyperus iria; [13],9.0
same,SAGPY herbicidal effect rating,"Sagittaria pygmaea, L.; [11]",0.0
same,SAGPY herbicidal effect rating,"Sagittaria pygmaea, L.; [12]",0.0
same,SAGPY herbicidal effect rating,"Sagittaria pygmaea, L.; [7]",2.0
same,SAGPY herbicidal effect rating,"Sagittaria pygmaea, L.; [8]",9.0
same,SAGPY herbicidal effect rating,"Sagittaria pygmaea, L.; [13]",9.0
same,MOOVA herbicidal effect rating,[4]; [11],9.0
same,MOOVA herbicidal effect rating,[4]; [12],9.0
same,MOOVA herbicidal effect rating,[4]; [7],9.0
same,MOOVA herbicidal effect rating,[4]; [8],9.0
same,MOOVA herbicidal effect rating,[4]; [13],9.0
"Cc1ccc(OCC(=O)OCC(C)(C)Cc2ccccc2)c(-c2nsc3ccc(-n4c(=O)cc(C(F)(F)F)n(C)c4=O)cc23)c1 [Example 527, Acetic acid, {{2-{5-[3,6-dihydro-3-methyl-2,6-dioxo-4-(trifluoromethyl)-1(2H)-pyrimidinyl)-1,2-benzisothiazol-3-yl}-p-tolyl}oxy}-, 2,2-dimethyl-3-phenylpropyl ester]","herbicidal effect rating, CYPSE",[1]; [16],0.0
same,"herbicidal effect rating, CYPSE",[1]; [17],0.0
same,"herbicidal effect rating, CYPSE",[1]; [18],0.0
same,"herbicidal effect rating, CYPSE",[1]; [19],0.0
same,"herbicidal effect rating, ECHORC",[2]; [16],3.0
same,"herbicidal effect rating, ECHORC",[2]; [17],8.0
same,"herbicidal effect rating, ECHORC",[2]; [18],9.0
same,"herbicidal effect rating, ECHORC",[2]; [19],9.0
same,herbicidal effect rating ORYSAT,"[3]; Rate 0.0320 kg/ha, rated 3-4 weeks after treatment",2.0
same,herbicidal effect rating ORYSAT,"[3]; Rate 0.0620 kg/ha, rated 3-4 weeks after treatment",2.5
same,herbicidal effect rating ORYSAT,"[3]; Rate 0.1250 kg/ha, rated 3-4 weeks after treatment",2.5
same,herbicidal effect rating ORYSAT,"[3]; Rate 0.2500 kg/ha, rated 3-4 weeks after treatment",4.0
same,"herbicidal effect rating, CYPIR",Cyperus iria; [16],2.0
same,"herbicidal effect rating, CYPIR",Cyperus iria; [17],2.0
same,"herbicidal effect rating, CYPIR",Cyperus iria; [18],4.0
same,"herbicidal effect rating, CYPIR",Cyperus iria; [19],4.0
same,"herbicidal effect rating, SAGPY","Sagittaria pygmaea, L.; [16]",0.0
same,"herbicidal effect rating, SAGPY","Sagittaria pygmaea, L.; [17]",0.0
same,"herbicidal effect rating, SAGPY","Sagittaria pygmaea, L.; [18]",0.0
same,"herbicidal effect rating, SAGPY","Sagittaria pygmaea, L.; [19]",0.0
same,"herbicidal effect rating, MOOVA",[4]; [16],9.0
same,"herbicidal effect rating, MOOVA",[4]; [17],9.0
same,"herbicidal effect rating, MOOVA",[4]; [18],9.0
same,"herbicidal effect rating, MOOVA",[4]; [19],9.0
"Cn1c(C(F)(F)F)cc(=O)n(-c2ccc3snc(C(C#N)=Cc4ccc[nH]4)c3c2)c1=O [Example 598, 1,2-Benzisothiazole-3-acetonitrile, 5-[3,6-dihydro-3-methyl-2,6-dioxo-4-(trifluoromethyl)-1(2H)-pyrimidinyl]-alpha-(pyrrol-2-ylmethylene)-]","herbicidal effect rating, CYPSE",[1]; [11],0.0
same,"herbicidal effect rating, CYPSE",[1]; [8],0.0
same,"herbicidal effect rating, ECHORC",[2]; [11],0.0
same,"herbicidal effect rating, ECHORC",[2]; [12],0.0
same,"herbicidal effect rating, ECHORC",[2]; [7],0.0
same,"herbicidal effect rating, ECHORC",[2]; [8],0.0
same,herbicidal effect rating ORYSAT,[3]; [14],0.0
same,herbicidal effect rating ORYSAT,[3]; [15],0.0
same,herbicidal effect rating ORYSAT,[3]; [9],3.0
same,herbicidal effect rating ORYSAT,[3]; [10],3.0
same,"herbicidal effect rating, CYPIR",Cyperus iria; [11],0.0
same,"herbicidal effect rating, CYPIR",Cyperus iria; [12],0.0
same,"herbicidal effect rating, CYPIR",Cyperus iria; [7],2.0
same,"herbicidal effect rating, CYPIR",Cyperus iria; [8],3.0
same,"herbicidal effect rating, SAGPY","Sagittaria pygmaea, L.; [11]",0.0
same,"herbicidal effect rating, SAGPY","Sagittaria pygmaea, L.; [12]",0.0
same,"herbicidal effect rating, SAGPY","Sagittaria pygmaea, L.; [7]",0.0
same,"herbicidal effect rating, SAGPY","Sagittaria pygmaea, L.; [8]",0.0
same,"herbicidal effect rating, MOOVA",[4]; [7],7.0
same,"herbicidal effect rating, MOOVA",[4]; [8],7.0
"Cc1ccc(OCC(=O)NS(C)(=O)=O)c(-c2nsc3ccc(-n4c(=O)cc(C(F)(F)F)n(C)c4=O)cc23)c1 [Example 121, N-{{{2-{5-[3,6-Dihydro-3-methyl-2,6-dioxo-4-(trifluoromethyl)-1(2H)-pyrimidinyl]-1,2-benzisothiazol-3-yl}-p-tolyl}oxy}acetyl}methanesulfonamide]","herbicidal effect rating, CYPSE",[1]; [20],0.0
same,"herbicidal effect rating, CYPSE",[1]; [21],0.0
same,"herbicidal effect rating, CYPSE",[1]; [22],2.0
same,"herbicidal effect rating, CYPSE",[1]; [23],4.0
same,"herbicidal effect rating, ECHORC",[2]; [20],6.0
same,"herbicidal effect rating, ECHORC",[2]; [21],7.0
same,"herbicidal effect rating, ECHORC",[2]; [22],8.0
same,"herbicidal effect rating, ECHORC",[2]; [23],9.0
same,"herbicidal effect rating, ORYSAT (rice tolerance)","[3]; 0.0313 kg/ha, rated three to four weeks after treatment",3.0
same,"herbicidal effect rating, ORYSAT (rice tolerance)","[3]; 0.0625 kg/ha, rated three to four weeks after treatment",4.0
same,"herbicidal effect rating, ORYSAT (rice tolerance)","[3]; 0.1250 kg/ha, rated three to four weeks after treatment",6.0
same,"herbicidal effect rating, ORYSAT (rice tolerance)","[3]; 0.2500 kg/ha, rated three to four weeks after treatment",9.0
same,"herbicidal effect rating, CYPIR",Cyperus iria; [20],0.0
same,"herbicidal effect rating, CYPIR",Cyperus iria; [21],0.0
same,"herbicidal effect rating, CYPIR",Cyperus iria; [22],2.0
same,"herbicidal effect rating, CYPIR",Cyperus iria; [23],4.0
same,"herbicidal effect rating, SAGPY","Sagittaria pygmaea, L.; [20]",0.0
same,"herbicidal effect rating, SAGPY","Sagittaria pygmaea, L.; [21]",0.0
same,"herbicidal effect rating, SAGPY","Sagittaria pygmaea, L.; [22]",0.0
same,"herbicidal effect rating, SAGPY","Sagittaria pygmaea, L.; [23]",0.0
same,"herbicidal effect rating, MOOVA",[4]; [20],9.0
same,"herbicidal effect rating, MOOVA",[4]; [21],9.0
same,"herbicidal effect rating, MOOVA",[4]; [22],9.0
same,"herbicidal effect rating, MOOVA",[4]; [23],9.0
"Cn1c(C(F)(F)F)cc(=O)n(-c2ccc3snc(COCc4ccc(Cl)c(Cl)c4)c3c2)c1=O [Example 586, 2,4(1H,3H)-Pyrimidinedione, 3-{3-{[(3,4-dichlorobenzyl)oxy]methyl}-1,2-benzisothiazol-5-yl}-1-methyl-6-(trifluoromethyl)-]","herbicidal effect rating, CYPSE",[1]; [11],0.0
same,"herbicidal effect rating, CYPSE",[1]; [12],0.0
same,"herbicidal effect rating, CYPSE",[1]; [7],4.5
same,"herbicidal effect rating, CYPSE",[1]; [8],4.5
same,"herbicidal effect rating, ECHORC",[2]; [11],8.0
same,"herbicidal effect rating, ECHORC",[2]; [12],9.0
same,"herbicidal effect rating, ECHORC",[2]; [7],9.0
same,"herbicidal effect rating, ECHORC",[2]; [8],9.0
same,herbicidal effect rating ORYSAT,[3]; [14],1.0
same,herbicidal effect rating ORYSAT,[3]; [15],2.0
same,herbicidal effect rating ORYSAT,[3]; [9],2.0
same,herbicidal effect rating ORYSAT,[3]; [10],2.0
same,"herbicidal effect rating, CYPIR",Cyperus iria; [11],8.0
same,"herbicidal effect rating, CYPIR",Cyperus iria; [12],8.5
same,"herbicidal effect rating, CYPIR",Cyperus iria; [7],9.0
same,"herbicidal effect rating, CYPIR",Cyperus iria; [8],9.0
same,"herbicidal effect rating, SAGPY","Sagittaria pygmaea, L.; [11]",0.0
same,"herbicidal effect rating, SAGPY","Sagittaria pygmaea, L.; [12]",0.0
same,"herbicidal effect rating, SAGPY","Sagittaria pygmaea, L.; [7]",0.0
same,"herbicidal effect rating, SAGPY","Sagittaria pygmaea, L.; [8]",0.0
same,"herbicidal effect rating, MOOVA",[4]; [11],9.0
same,"herbicidal effect rating, MOOVA",[4]; [12],6.5
same,"herbicidal effect rating, MOOVA",[4]; [7],9.0
same,"herbicidal effect rating, MOOVA",[4]; [8],9.0
